Laboratory results: patent US7799811B2, “Agent for prevention and treatment of cancer comprising oxadiazole urea compound obstructing activity of stat” (Korea Research Institute of Bioscience and Biotechnology, priority 2006, dated 2010)

Columns and labels:
[1] = tested on: MDA-MB-231 breast cancer cells; experiment: WST-1 growth inhibition assay, MDA-MB-231; type: cell-based, human; settings: MDA-MB-231 cells, 24 hrs
Protocol: (§1) The oxadiazole urea compound of the present invention was estimated for growth inhibitory activity against other human cancer cell lines in a WST-1 assay.
(§2) Human cancer cell lines were cultured in 10% fetal bovine serum (FBS)-containing medium at 37[…] under 5% CO2, and detached using 0.05% trypsin-EDTA. Cells were seeded onto a 96-well plate at a density of 5×10^3 cells per well (for MDA-MB-231 and MDA-MB-468 breast cancer cells) or at a density of 7×10^3 cells per well (for colorectal carcinoma HCT116 and colon cancer SW620 cells).
(§3) Then, cells were cultured in 10% FBS containing medium in an incubator at 37[…] under 5% CO2. After 24 hrs, the medium was exchanged with a medium containing 0.1% DMSO (as a control), or with media containing the oxadiazole urea compound at various concentrations (the compound dissolved in DMSO was diluted in medium), and cells were further cultured for 24 hrs. 10 μl of WST-1 Reagent (Roche) was added to each well, and the plate was incubated for 2 hrs. Absorbance was measured at 450 nm using an ELISA reader (Bio-Rad).

[2] = tested on: SD rats; experiment: acute toxicity test on oral application in rats; type: in vivo; settings: single oral dose of 1 g/kg/ml
Protocol: An acute toxicity test was conducted with 6-week-old specific pathogen-free (SPF) SD rats. The present compound was suspended in injectable distilled water, and orally administered to two SD rats per group at a single dose of 1 g/kg/ml. […] After autopsy, abnormalities of abdominal and thoracic organs were visually observed.

[3] = tested on: colorectal carcinoma HCT116 cells; experiment: WST-1 growth inhibition assay, HCT116; type: cell-based; settings: Homo sapiens, HCT-116, 24 hrs
Protocol: as §1, §2, §3

[4] = molecular target: T1, STAT3 (Homo sapiens, UniProt P40763); experiment: dual luciferase assay for STAT3 inhibitory activity in transfected HCT116 cells; type: cell-based; settings: HCT116 cells transfected with STAT3-dependent firefly luciferase; 12 hrs or 24 hrs; read-out: concentration inhibiting 50% of STAT3 activity
T1 construct: Colorectal carcinoma HCT116 cells were co-transfected with a plasmid carrying firefly luciferase, whose expression increases with STAT3 activity; endogenous in cells; host or cells: HCT116 human colorectal carcinoma cells
T1 sequence (P40763 whole entry): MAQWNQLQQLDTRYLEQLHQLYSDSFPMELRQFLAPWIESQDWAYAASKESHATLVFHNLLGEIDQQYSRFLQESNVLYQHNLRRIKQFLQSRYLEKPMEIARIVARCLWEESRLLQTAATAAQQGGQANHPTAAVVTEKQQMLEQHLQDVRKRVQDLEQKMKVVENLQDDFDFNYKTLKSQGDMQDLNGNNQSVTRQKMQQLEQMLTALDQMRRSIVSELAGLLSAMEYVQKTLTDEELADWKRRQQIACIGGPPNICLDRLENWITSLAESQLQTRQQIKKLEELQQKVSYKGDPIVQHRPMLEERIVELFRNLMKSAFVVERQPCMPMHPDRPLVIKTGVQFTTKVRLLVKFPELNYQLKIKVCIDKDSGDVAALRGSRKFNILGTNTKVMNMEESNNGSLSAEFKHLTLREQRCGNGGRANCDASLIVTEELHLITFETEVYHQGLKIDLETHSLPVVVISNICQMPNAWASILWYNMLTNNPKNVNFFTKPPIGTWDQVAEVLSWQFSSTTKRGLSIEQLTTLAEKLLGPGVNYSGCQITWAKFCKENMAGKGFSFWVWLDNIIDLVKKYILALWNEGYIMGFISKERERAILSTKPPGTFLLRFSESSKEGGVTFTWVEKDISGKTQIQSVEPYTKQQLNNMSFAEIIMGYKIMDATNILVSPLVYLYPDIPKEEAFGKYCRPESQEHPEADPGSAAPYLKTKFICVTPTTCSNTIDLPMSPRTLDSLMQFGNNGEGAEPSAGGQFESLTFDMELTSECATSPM
Protocol: A dual luciferase assay was performed to determine whether the oxadiazole urea compound of the present invention has inhibitory activity against STAT3.
Colorectal carcinoma HCT116 cells were co-transfected with a plasmid carrying firefly luciferase, whose expression increases with STAT3 activity, and another plasmid carrying renilla luciferase, which is expressed independently of STAT3 activity. The transfected HCT116 cells were detached using 0.05% trypsin EDTA and seeded onto a 96-well test plate at a density of 1×10^4 cells per well. Cells were cultured in an incubator at 37[…] under 5% CO2 for 3 hrs, and then incubated with DMSO (1%) alone as a control and with the oxadiazole urea compound (dissolved in DMSO) at various concentrations (diluted 1/100).
After 12 hrs or 24 hrs, STAT activity was assayed by adding two different substrates for firefly luciferase and renilla luciferase, beetle luciferin and coelenterazine, to the medium. The luminescence intensity by substrate degradation was measured using a luminometer (Wallac 1420). The measured firefly luciferase activity reflected STAT3 activity in a proportional manner. Renilla luciferase was used to calibrate non-specific cytotoxicity, occurring in each test group, and internal deviation.

[5] = tested on: MDA-MB-468 breast cancer cells; experiment: WST-1 growth inhibition assay, MDA-MB-468; type: cell-based; settings: Homo sapiens, MDA-MB-468 cells, 24 hrs
Protocol: as §1, §2, §3

[6] = solubility in solvents; type: physicochemical
[7] = tested on: colon cancer SW620 cells; experiment: WST-1 growth inhibition assay, SW620; type: cell-based; settings: Homo sapiens, SW-620, 24 hrs
Protocol: as §1, §2, §3

In the case of `O=C(Nc1ccc(C(F)(F)F)cc1)Nc1nonc1-c1ccc(Cl)cc1` [compound of Chemical Formula 1], the “50% growth inhibition concentration” value [1] is reported as no less than 100 μm, the clinical symptoms [2] is reported as “no special clinical symptoms” and the GI50 [3] is reported as 15 µM. The IC50 [4] was 2.5 to 3 µM, the GI50 [5] was 40 µM and the “solubility in a nonpolar solvent” value ([6]; nonpolar solvent, such as hexane) was “not dissolved”. For the same molecule, the “solubility in a polar solvent” value ([6]; polar solvent, such as DMSO) was “well dissolved” and the GI50 [7] was 70 µM.
